{
  "source": "patent US20120058135A1",
  "about": "“Identification and characterization of racemases, definition of protein signatures, and a test for detecting D-amino acid and for screening molecules capable of inhibiting the activity of racemase, especially proline racemase” (Institut Pasteur, priority 2010, published 2012)",
  "key": {"D-AAO": {"target": "T1, D-AAO (Sus scrofa, UniProt P00371)", "T1 construct": "purchased Sigma A-5222; host or cells: swine kidney", "T1 sequence (P00371 whole entry)": "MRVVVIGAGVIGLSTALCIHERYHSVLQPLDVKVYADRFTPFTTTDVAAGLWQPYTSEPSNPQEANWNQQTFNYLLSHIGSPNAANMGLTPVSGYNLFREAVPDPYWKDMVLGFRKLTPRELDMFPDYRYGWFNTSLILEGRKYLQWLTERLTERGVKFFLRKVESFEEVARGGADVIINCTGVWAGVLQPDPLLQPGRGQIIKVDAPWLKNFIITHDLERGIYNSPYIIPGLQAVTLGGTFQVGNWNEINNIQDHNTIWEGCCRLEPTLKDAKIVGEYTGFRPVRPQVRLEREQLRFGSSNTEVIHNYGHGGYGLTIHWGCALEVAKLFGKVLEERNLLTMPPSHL", "assay": "D-AAO microplate test for detection of D-amino acids", "format": "biochemical, swine", "conditions": "raw OD", "text": "The D-AAO/HRP test described here above can also be used for this purpose with slight modifications. For that purpose, the racemase reaction step should be skipped and the microplate test should start straightforward at the II-1-2.1-2 step described above with the following remarks:\n1) Standard: It should not be an equimolar mixture of D- and L-amino acid, but rather a serial dilution of D-Amino acids. The choice of amino acid is made according to the interest of the D-amino acid under investigation. The final volume in wells should be of 87 μl.\n2) Negative control: It is made with the L-enantiomer of the D-amino acid under investigation. The final volume should be 87 μl.\n3) Blank: It is made with 87 μl buffer*. (See paragraph II.1.1 Materials.)\n4) Samples: The samples to be tested should be adjusted to pH 8.3 with buffer* and their final volumes should be of 87 μl per well.\n5) Then, the procedure follows steps 3) to 6), as above.\nDifferent L- and D-amino acids were tested, namely Tyrosine (Tyr), Valine (Val), Threonine (Thr), Glutamic acid (Glu), Lysine (Lys) and Tryptophan (Try)."}, "D-AAO/HRP": {"target": "D-AAO/HRP (Sus scrofa, UniProt P00371)", "sequence (P00371 whole entry)": "as above", "assay": "Interference with the D-AAO/HRP reaction", "format": "biochemical, swine"}, "B cells": {"system": "B cells", "conditions": "TcPRAC inhibited by the compound; cited from earlier work"}, "[1]": {"target": "native protein obtained from a soluble epimastigote fraction (proline racemase) (Trypanosoma cruzi, UniProt Q868H8)", "sequence (Q868H8 whole entry)": "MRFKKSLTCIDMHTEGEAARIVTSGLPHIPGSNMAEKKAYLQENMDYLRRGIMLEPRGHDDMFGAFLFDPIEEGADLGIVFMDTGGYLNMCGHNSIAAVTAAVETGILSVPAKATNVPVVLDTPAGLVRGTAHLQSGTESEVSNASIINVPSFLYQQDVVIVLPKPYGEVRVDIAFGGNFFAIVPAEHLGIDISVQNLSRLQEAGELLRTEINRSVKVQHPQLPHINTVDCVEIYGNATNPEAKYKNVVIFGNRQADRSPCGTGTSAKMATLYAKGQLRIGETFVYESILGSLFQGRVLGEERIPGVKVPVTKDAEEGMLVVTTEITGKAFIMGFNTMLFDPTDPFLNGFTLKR", "assay": "Kinetic assays using the native protein from a soluble epimastigote fraction", "format": "biochemical", "text": "The progress of racemization reaction was monitored polarimetrically, as previously described (13). […] Values obtained were confirmed by using the Kaleïdagraph® program and Michaelis-Menten equation. […] C."}, "CsPR": {"target": "T2, CsPR (Acetoanaerobium sticklandii, UniProt E3PTZ4)", "T2 sequence (E3PTZ4 1-335)": "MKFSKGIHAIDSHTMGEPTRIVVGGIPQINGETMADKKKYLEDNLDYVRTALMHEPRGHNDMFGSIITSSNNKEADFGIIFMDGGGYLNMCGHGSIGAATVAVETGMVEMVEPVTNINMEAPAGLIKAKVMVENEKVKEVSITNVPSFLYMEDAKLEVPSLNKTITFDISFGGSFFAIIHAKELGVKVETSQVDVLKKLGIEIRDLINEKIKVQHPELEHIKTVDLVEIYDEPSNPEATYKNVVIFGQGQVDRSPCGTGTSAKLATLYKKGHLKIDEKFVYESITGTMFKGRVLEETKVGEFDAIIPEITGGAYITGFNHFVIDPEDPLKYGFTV", "conditions": "cited from earlier work"}, "[2]": {"system": "non-infected monkey cell cultures"}},
  "note": "Several values for one entry are separate records, joined by “and”; a condition that tells them apart may be missing. Equal entries are not always repeated.",
  "data": [
    {"smiles": "CC(C)[C@H](N)C(=O)O", "note": "[D-Val, Valine]", "values": [
      {"measurement": "Optical density at 490 nm after D-AAO reaction", "setting": "D-AAO; D-enantiomers, 6.25 mM", "result": "1.683 and 1.612"}
    ]},
    {"smiles": "N[C@@H](Cc1ccc(O)cc1)C(=O)O", "note": "[L-Tyr, Tyrosine]", "values": [
      {"measurement": "Optical density at 490 nm after D-AAO reaction", "setting": "D-AAO; L-enantiomers, 12.5 mM", "result": "0.193 and 0.141"}
    ]},
    {"smiles": "N[C@@H](Cc1c[nH]c2ccccc12)C(=O)O", "note": "[L-Try, Tryptophan]", "values": [
      {"measurement": "Optical density at 490 nm after D-AAO reaction", "setting": "D-AAO; L-enantiomers, 12.5 mM", "result": "0.131 and 0.138"}
    ]},
    {"smiles": "N[C@@H](Cc1ccc(O)cc1)C(=O)O", "note": "[D-Tyr, Tyrosine]", "values": [
      {"measurement": "Optical density at 490 nm after D-AAO reaction", "setting": "D-AAO; D-enantiomers, 6.25 mM", "result": "1.317 and 0.991"}
    ]},
    {"smiles": "N[C@@H](CCC(=O)O)C(=O)O", "note": "[L-Glu, Glutamic acid]", "values": [
      {"measurement": "Optical density at 490 nm after D-AAO reaction", "setting": "D-AAO; L-enantiomers, 12.5 mM", "result": "0.131 and 0.141"}
    ]},
    {"smiles": "C[C@@H](O)[C@H](N)C(=O)O", "note": "[L-Thr, Threonine]", "values": [
      {"measurement": "Optical density at 490 nm after D-AAO reaction", "setting": "D-AAO; L-enantiomers, 12.5 mM", "result": "0.124 and 0.128"}
    ]},
    {"smiles": "N[C@@H](Cc1c[nH]c2ccccc12)C(=O)O", "note": "[D-Try, Tryptophan]", "values": [
      {"measurement": "Optical density at 490 nm after D-AAO reaction", "setting": "D-AAO; D-enantiomers, 6.25 mM", "result": "0.615 and 0.662"}
    ]},
    {"smiles": "NCCCC[C@H](N)C(=O)O", "note": "[L-Lys, Lysine]", "values": [
      {"measurement": "Optical density at 490 nm after D-AAO reaction", "setting": "D-AAO; L-enantiomers, 12.5 mM", "result": "0.125 and 0.131"}
    ]},
    {"smiles": "O=C(O)[C@@H]1CCCN1", "note": "[L-Proline]", "values": [
      {"measurement": "effect on D-AAO/HRP reaction", "setting": "D-AAO/HRP", "result": "Inhibits"}
    ]},
    {"smiles": "O=C(O)[C@H]1CCCN1", "note": "[D-pro, D-Proline]", "values": [
      {"measurement": "Optical density at 490 nm after D-AAO reaction", "setting": "D-AAO; 0.05 mM", "result": 0.173},
      {"measurement": "Optical density at 490 nm after D-AAO reaction", "setting": "D-AAO; 0.09 mM", "result": "0.213 and 0.215"},
      {"measurement": "Optical density at 490 nm after D-AAO reaction", "setting": "D-AAO; 0.19 mM", "result": "0.308 and 0.32"},
      {"measurement": "Optical density at 490 nm after D-AAO reaction", "setting": "D-AAO; 0.39 mM", "result": "0.496 and 0.504"},
      {"measurement": "Optical density at 490 nm after D-AAO reaction", "setting": "D-AAO; 0.77 mM", "result": "0.809 and 0.824"},
      {"measurement": "Optical density at 490 nm after D-AAO reaction", "setting": "D-AAO; 1.55 mM", "result": "1.234 and 1.221"},
      {"measurement": "Optical density at 490 nm after D-AAO reaction", "setting": "D-AAO; 3.09 mM", "result": "1.716 and 1.879"},
      {"measurement": "Optical density at 490 nm after D-AAO reaction", "setting": "D-AAO; 6.19 mM", "result": "1.983 and 1.949"},
      {"measurement": "Optical density at 490 nm after D-AAO reaction", "setting": "D-AAO; 12.37 mM", "result": "1.814 and 1.976"},
      {"measurement": "Optical density at 490 nm after D-AAO reaction", "setting": "D-AAO; 24.75 mM", "result": "1.757 and 1.885"},
      {"measurement": "Optical density at 490 nm after D-AAO reaction", "setting": "D-AAO; 49.5 mM", "result": "1.961 and 2.004"}
    ]},
    {"smiles": "N[C@@H](CCC(=O)O)C(=O)O", "note": "[D-Glu, Glutamic acid]", "values": [
      {"measurement": "Optical density at 490 nm after D-AAO reaction", "setting": "D-AAO; D-enantiomers, 6.25 mM", "result": "0.147 and 0.116"}
    ]},
    {"smiles": "NCCCC[C@H](N)C(=O)O", "note": "[D-Lys, Lysine]", "values": [
      {"measurement": "Optical density at 490 nm after D-AAO reaction", "setting": "D-AAO; D-enantiomers, 6.25 mM", "result": "0.243 and 0.157"}
    ]},
    {"smiles": "O=C(O)c1ccc[nH]1", "note": "[PAC, pyrrole-2-carboxylic acid]", "values": [
      {"measurement": "TcPRAC B cell mitogenic ability", "setting": "B cells", "result": "total loss of TcPRAC B cell mitogenic ability"},
      {"measurement": "Ki", "setting": "[1]", "result": 1.15, "unit": "µM"},
      {"measurement": "effect on D-AAO/HRP reaction", "setting": "D-AAO/HRP", "result": "does not influence DAAO/HRP reaction"},
      {"measurement": "Ki", "setting": "CsPR", "result": 18, "unit": "µM"},
      {"measurement": "interference with cellular growth", "setting": "[2]", "result": "do not interfere with cellular growth"}
    ]},
    {"smiles": "CC(C)[C@H](N)C(=O)O", "note": "[L-Val, Valine]", "values": [
      {"measurement": "Optical density at 490 nm after D-AAO reaction", "setting": "D-AAO; L-enantiomers, 12.5 mM", "result": "0.135 and 0.129"}
    ]},
    {"smiles": "C[C@@H](O)[C@H](N)C(=O)O", "note": "[D-Thr, Threonine]", "values": [
      {"measurement": "Optical density at 490 nm after D-AAO reaction", "setting": "D-AAO; D-enantiomers, 6.25 mM", "result": "0.215 and 0.157"}
    ]}
  ]
}
